System: LL-37
Assay: LL-37 expression (qPCR) in OKF6 gingival epithelial cells after overnight treatment
Assay type: cell-based
Details: topical application to gingival epithelial cells (GEC)
Method: OKF6 Cells (Gingival epithelial cells) were grown in 6 well tissue culture plates. Cells monolayer was treated with indicated doses (FIG. 1) of Vitamin D3 or phenylbutyrate alone or in combinations of two and cells were further incubated in tissue culture incubator for overnight incubation. After overnight incubation, cells were harvested in RNA lysis buffer. Lysates were processed for RNA isolation using Qiagen RNA isolation kit. RNA was processed for c-DNA preparation and further amplified (qPCR) using LL-37 (Hs 01011708_m1), Cyp24A1 (Hs00989018_m1), GAPDH (Hs 99999905_m1) Taqman genes specific probes. QPCR data was analyzed for fold induction of LL-37 expression and relative difference of expressions was plotted. […] As illustrated by the data described in FIGS. 1 and 2, the inventive combinations of the present invention provide a synergistic increase in LL-37 and CYP24A1, respectively.

Structure (SMILES): C=C1/C(=C\C=C2/CCC[C@]3(C)[C@@H]([C@H](C)CCCC(C)(C)O)CC[C@@H]23)C[C@@H](O)C[C@@H]1O [1,25(OH)2D3, 1,25-dihydroxycholecalciferol]
- expression of anti-microbial peptide (LL-37) proteins: enhanced expression
